# Source: ChEMBL document CHEMBL5649168, “Discovery of a selective catalytic p300/CBP inhibitor that targets lineage-specific tumours” (Nature, 2017)
# Activity calls are given as the source filed them. No cut-off for these calls is given here.
# Assays:
# MDA-MB-468 = experiment: Antiproliferative activity against human MDA-MB-468 cells assessed as inhibition of cell viability incubated for 3 to 5 days by Celltiter-Glo luminescent assay; format: functional, cell-based
# MeWo = experiment: Antiproliferative activity against human MeWo cells assessed as inhibition of cell viability incubated for 3 to 5 days by Celltiter-Glo luminescent assay; format: functional, cell-based
# HCC4006 = experiment: Antiproliferative activity against human HCC4006 cells assessed as inhibition of cell viability incubated for 3 to 5 days by Celltiter-Glo luminescent assay; format: functional, cell-based
# LuCaP-77 CR cell = conditions: Homo sapiens, dose 100.0 mg/kg, time 7.0 day
# CHL-1 = experiment: Antiproliferative activity against human CHL-1 cells assessed as inhibition of cell viability incubated for 3 to 5 days by Celltiter-Glo luminescent assay; format: functional, cell-based
# [1] = Tmax in CB17 SCID mouse xenografted with LuCaP-77 CR cell at 200 mg/kg, ip administered for 7 days; format: ADME, organism-based; conditions: in vivo, time 7 day
# NCI-H1417 = experiment: Antiproliferative activity against human NCI-H1417 cells assessed as inhibition of cell viability incubated for 3 to 5 days by Celltiter-Glo luminescent assay; format: functional, cell-based
# [2] = molecular target: Tyrosine-protein kinase receptor TYRO3 (Homo sapiens, UniProt Q06418); experiment: Inhibition of TYRO3 (unknown origin)
# [3] = molecular target: Serine/threonine-protein kinase TBK1 (Homo sapiens, UniProt Q9UHD2); experiment: Inhibition of TBK1 (unknown origin)
# Serine/threonine-protein kinase TBK1, sequence (Q9UHD2 whole entry): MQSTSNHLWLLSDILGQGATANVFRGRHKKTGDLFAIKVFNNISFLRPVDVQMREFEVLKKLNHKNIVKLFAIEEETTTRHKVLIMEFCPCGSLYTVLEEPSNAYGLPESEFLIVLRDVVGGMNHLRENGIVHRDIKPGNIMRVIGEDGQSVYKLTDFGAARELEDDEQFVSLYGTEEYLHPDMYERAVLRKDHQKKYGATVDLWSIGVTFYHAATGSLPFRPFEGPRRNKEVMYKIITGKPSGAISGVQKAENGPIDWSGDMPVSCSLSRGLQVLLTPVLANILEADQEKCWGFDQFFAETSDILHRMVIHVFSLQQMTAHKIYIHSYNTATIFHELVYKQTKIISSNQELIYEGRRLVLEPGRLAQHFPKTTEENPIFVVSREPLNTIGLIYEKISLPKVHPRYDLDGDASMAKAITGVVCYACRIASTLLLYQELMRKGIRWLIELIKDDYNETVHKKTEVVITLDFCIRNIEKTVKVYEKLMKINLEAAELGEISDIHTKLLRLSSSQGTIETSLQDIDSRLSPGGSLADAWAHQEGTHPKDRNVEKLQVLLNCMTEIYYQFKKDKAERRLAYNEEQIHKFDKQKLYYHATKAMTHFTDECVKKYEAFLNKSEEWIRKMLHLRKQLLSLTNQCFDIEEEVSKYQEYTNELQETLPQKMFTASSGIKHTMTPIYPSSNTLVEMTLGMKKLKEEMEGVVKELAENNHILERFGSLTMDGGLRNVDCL
# NCI-H522 = experiment: Antiproliferative activity against human NCI-H522 cells assessed as inhibition of cell viability incubated for 3 to 5 days by Celltiter-Glo luminescent assay; format: functional, cell-based
# NCI-H661 = experiment: Antiproliferative activity against human NCI-H661 cells assessed as inhibition of cell viability incubated for 3 to 5 days by Celltiter-Glo luminescent assay; format: functional, cell-based
# OCI-Ly7 = experiment: Antiproliferative activity against human OCILY7 cells assessed as inhibition of cell viability incubated for 3 to 5 days by Celltiter-Glo luminescent assay; format: functional, cell-based
# [4] = molecular target: Mitogen-activated protein kinase kinase kinase kinase 4 (Homo sapiens, UniProt O95819); experiment: Inhibition of MAP4K4 (unknown origin)
# Mitogen-activated protein kinase kinase kinase kinase 4, sequence (O95819 whole entry): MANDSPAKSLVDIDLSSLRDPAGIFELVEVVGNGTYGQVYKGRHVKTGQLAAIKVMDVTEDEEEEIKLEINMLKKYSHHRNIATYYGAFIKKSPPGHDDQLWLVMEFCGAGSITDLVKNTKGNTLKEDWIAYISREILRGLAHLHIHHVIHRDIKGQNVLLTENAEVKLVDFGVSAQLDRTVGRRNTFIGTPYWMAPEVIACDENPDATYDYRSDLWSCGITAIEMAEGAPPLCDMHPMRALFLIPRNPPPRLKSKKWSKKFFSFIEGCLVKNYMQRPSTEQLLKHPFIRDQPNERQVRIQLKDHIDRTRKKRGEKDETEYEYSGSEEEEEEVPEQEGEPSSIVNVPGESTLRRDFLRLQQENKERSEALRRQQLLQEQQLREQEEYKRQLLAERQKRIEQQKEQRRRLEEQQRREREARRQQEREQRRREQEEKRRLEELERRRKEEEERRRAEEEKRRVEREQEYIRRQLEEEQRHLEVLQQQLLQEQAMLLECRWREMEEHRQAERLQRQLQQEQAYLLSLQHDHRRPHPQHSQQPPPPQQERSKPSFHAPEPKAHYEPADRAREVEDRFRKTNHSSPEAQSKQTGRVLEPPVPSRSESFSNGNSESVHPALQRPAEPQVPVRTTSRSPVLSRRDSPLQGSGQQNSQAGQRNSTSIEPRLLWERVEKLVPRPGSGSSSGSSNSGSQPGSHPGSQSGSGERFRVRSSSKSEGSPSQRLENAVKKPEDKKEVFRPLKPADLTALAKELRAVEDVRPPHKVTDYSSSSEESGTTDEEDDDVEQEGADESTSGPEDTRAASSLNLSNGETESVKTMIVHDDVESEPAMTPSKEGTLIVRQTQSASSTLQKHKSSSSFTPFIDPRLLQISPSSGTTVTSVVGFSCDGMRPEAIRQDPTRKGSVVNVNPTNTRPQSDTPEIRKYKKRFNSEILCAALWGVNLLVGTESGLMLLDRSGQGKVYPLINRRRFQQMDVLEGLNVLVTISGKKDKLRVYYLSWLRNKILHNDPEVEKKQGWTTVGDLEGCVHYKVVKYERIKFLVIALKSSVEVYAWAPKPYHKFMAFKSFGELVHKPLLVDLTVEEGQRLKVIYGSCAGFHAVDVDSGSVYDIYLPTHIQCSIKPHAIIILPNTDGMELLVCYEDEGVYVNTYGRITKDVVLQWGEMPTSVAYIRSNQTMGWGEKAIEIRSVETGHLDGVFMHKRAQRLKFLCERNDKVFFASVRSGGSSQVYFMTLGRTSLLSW
# BT-20 = experiment: Antiproliferative activity against human BT-20 cells assessed as inhibition of cell viability incubated for 3 to 5 days by Celltiter-Glo luminescent assay; format: functional, cell-based
# [5] = molecular target: Dual specificity mitogen-activated protein kinase kinase 3 (Homo sapiens, UniProt P46734); experiment: Inhibition of MAP2K3 (unknown origin)
# Dual specificity mitogen-activated protein kinase kinase 3, sequence (P46734 whole entry): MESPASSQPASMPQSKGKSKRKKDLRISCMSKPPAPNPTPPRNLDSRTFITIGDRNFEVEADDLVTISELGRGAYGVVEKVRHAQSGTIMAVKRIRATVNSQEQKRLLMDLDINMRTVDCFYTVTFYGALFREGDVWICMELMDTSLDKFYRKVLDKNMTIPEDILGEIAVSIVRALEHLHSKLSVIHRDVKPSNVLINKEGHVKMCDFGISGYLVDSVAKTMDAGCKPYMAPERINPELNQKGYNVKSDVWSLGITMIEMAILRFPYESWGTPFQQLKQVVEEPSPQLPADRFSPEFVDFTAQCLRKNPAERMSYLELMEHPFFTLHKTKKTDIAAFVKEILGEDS
# COLO-679 = experiment: Antiproliferative activity against human COLO-679 cells assessed as inhibition of cell viability incubated for 3 to 5 days by Celltiter-Glo luminescent assay; format: functional, cell-based
# SET-2 = experiment: Antiproliferative activity against human SET2 cells assessed as inhibition of cell viability incubated for 3 to 5 days by Celltiter-Glo luminescent assay; format: functional, cell-based
# [6] = molecular target: Leukocyte tyrosine kinase receptor (Homo sapiens, UniProt P29376); experiment: Inhibition of LTK (unknown origin)
# Aurora kinase A = Aurora kinase A (Homo sapiens, UniProt O14965); experiment: Inhibition of Aurora2 (unknown origin)
# HCC2935 = experiment: Antiproliferative activity against human HCC2935 cells assessed as inhibition of cell viability incubated for 3 to 5 days by Celltiter-Glo luminescent assay; format: functional, cell-based
# NCI-H211 = experiment: Antiproliferative activity against human NCI-H211 cells assessed as inhibition of cell viability incubated for 3 to 5 days by Celltiter-Glo luminescent assay; format: functional, cell-based
# [7] = molecular target: Protein kinase C theta type (Homo sapiens, UniProt Q04759); experiment: Inhibition of PKCtheta (unknown origin)
# Protein kinase C theta type, sequence (Q04759 whole entry): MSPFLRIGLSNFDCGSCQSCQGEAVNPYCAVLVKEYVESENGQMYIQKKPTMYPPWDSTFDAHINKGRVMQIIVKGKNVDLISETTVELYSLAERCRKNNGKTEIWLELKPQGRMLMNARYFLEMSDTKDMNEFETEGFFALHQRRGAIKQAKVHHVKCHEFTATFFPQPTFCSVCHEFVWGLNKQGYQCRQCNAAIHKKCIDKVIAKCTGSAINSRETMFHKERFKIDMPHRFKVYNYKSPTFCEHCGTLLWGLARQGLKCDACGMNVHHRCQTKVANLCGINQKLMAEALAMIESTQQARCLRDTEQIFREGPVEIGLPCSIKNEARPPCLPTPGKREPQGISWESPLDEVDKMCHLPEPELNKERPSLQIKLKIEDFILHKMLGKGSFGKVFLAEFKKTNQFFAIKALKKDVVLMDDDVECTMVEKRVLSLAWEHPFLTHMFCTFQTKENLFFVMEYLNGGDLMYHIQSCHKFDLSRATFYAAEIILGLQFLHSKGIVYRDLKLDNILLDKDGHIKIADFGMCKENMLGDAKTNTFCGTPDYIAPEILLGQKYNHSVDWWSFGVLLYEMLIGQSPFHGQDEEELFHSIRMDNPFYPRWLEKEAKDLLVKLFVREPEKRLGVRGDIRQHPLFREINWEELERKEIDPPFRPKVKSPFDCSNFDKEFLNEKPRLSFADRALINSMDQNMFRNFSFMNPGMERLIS
# NCI-H146 = experiment: Antiproliferative activity against human NCI-H146 cells assessed as inhibition of cell viability incubated for 3 to 5 days by Celltiter-Glo luminescent assay; format: functional, cell-based
# [8] = molecular target: Glycogen synthase kinase-3 alpha (Homo sapiens, UniProt P49840); experiment: Inhibition of Gsk3alpha (unknown origin)
# [9] = molecular target: Serine/threonine-protein kinase 33 (Homo sapiens, UniProt Q9BYT3); experiment: Inhibition of STK33 (unknown origin)
# Serine/threonine-protein kinase 33, sequence (Q9BYT3 whole entry): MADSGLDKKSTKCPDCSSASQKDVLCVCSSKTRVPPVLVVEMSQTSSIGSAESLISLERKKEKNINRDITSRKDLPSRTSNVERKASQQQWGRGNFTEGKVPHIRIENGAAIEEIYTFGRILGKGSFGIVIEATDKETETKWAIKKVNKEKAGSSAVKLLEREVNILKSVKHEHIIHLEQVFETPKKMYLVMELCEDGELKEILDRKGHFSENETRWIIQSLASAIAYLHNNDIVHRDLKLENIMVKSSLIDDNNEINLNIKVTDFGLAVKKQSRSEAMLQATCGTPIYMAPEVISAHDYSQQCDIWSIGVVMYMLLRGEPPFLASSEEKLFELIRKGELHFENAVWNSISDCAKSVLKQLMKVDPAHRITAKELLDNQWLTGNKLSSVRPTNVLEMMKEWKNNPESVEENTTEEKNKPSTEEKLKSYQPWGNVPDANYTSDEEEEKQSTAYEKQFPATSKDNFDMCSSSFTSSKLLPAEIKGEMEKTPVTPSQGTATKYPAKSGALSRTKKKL
# [10] = Cmax in CB17 SCID mouse xenografted with LuCaP-77 CR cell at 100 mg/kg, ip administered for 7 days; format: ADME, organism-based; conditions: in vivo, time 7 day
# OCI-Ly3 = experiment: Antiproliferative activity against human OCILY3 cells assessed as inhibition of cell viability incubated for 3 to 5 days by Celltiter-Glo luminescent assay; format: functional, cell-based
# NCI-H187 = experiment: Antiproliferative activity against human NCI-H187 cells assessed as inhibition of cell viability incubated for 3 to 5 days by Celltiter-Glo luminescent assay; format: functional, cell-based
# [11] = AUC in CB17 SCID mouse xenografted with LuCaP-77 CR cell at 200 mg/kg, ip administered for 7 days; format: ADME, organism-based; conditions: in vivo, time 7 day
# [12] = molecular target: Platelet-derived growth factor receptor beta (Homo sapiens, UniProt P09619); experiment: Inhibition of PDGFRbeta (unknown origin)
# Platelet-derived growth factor receptor beta, sequence (P09619 whole entry): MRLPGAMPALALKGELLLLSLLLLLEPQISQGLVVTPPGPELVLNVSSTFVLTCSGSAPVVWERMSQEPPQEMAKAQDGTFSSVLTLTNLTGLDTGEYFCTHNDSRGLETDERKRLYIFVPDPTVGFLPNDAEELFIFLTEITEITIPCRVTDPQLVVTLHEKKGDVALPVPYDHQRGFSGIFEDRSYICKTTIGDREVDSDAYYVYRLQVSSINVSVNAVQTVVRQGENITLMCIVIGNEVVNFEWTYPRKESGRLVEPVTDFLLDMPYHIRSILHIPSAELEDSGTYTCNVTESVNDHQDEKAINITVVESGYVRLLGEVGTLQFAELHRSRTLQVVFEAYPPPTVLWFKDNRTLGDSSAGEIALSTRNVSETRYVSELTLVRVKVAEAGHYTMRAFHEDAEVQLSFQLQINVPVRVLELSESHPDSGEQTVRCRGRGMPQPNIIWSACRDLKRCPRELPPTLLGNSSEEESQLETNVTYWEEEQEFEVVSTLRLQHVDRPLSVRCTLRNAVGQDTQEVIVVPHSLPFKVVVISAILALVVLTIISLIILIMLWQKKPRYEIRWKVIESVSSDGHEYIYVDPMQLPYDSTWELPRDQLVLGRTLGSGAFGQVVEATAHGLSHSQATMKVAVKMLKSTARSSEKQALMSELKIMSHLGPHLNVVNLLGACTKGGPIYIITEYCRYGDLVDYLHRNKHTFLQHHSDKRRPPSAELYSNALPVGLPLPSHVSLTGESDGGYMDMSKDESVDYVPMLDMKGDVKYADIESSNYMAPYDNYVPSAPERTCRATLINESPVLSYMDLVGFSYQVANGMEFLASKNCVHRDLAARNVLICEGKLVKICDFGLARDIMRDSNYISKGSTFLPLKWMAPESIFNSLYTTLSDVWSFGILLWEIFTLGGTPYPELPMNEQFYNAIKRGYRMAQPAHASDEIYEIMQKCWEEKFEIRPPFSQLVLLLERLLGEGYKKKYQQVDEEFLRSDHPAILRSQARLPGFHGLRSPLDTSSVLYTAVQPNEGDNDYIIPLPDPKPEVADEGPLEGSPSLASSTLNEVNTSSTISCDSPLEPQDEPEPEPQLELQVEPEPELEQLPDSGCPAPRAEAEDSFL
# [13] = molecular target: Tyrosine-protein kinase SYK (Homo sapiens, UniProt P43405); experiment: Inhibition of Syk (unknown origin)
# [14] = AUC in CB17 SCID mouse xenografted with LuCaP-77 CR cell at 50 mg/kg, ip administered for 7 days; format: ADME, organism-based; conditions: in vivo, time 7 day
# NCI-H69 = experiment: Antiproliferative activity against human NCI-H69 cells assessed as inhibition of cell viability incubated for 3 to 5 days by Celltiter-Glo luminescent assay; format: functional, cell-based
# [15] = molecular target: Serine/threonine-protein kinase 16 (Homo sapiens, UniProt O75716); experiment: Inhibition of STK16 (unknown origin)
# NCI-H1048 = experiment: Antiproliferative activity against human NCI-H1048 cells assessed as inhibition of cell viability incubated for 3 to 5 days by Celltiter-Glo luminescent assay; format: functional, cell-based
# [16] = molecular target: NT-3 growth factor receptor (Homo sapiens, UniProt Q16288); experiment: Inhibition of TrkC (unknown origin)
# OCI-Ly18 = experiment: Antiproliferative activity against human OCI-Ly18 cells assessed as inhibition of cell viability incubated for 3 to 5 days by Celltiter-Glo luminescent assay; format: functional, cell-based
# [17] = molecular target: Mitogen-activated protein kinase 8 (Homo sapiens, UniProt P45983); experiment: Inhibition of JNK1 (unknown origin)
# Mitogen-activated protein kinase 8, sequence (P45983 whole entry): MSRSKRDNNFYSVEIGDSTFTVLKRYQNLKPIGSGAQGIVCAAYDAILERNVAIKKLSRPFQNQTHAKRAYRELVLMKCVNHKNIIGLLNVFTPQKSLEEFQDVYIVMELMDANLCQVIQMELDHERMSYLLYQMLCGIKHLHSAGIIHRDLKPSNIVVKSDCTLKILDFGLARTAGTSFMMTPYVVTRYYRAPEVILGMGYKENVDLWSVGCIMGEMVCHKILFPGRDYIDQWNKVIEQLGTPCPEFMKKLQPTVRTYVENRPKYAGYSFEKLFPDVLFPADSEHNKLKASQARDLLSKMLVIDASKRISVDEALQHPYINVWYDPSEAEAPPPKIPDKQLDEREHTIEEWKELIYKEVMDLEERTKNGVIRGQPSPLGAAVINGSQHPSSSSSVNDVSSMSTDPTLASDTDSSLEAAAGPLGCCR
# EOL1 = experiment: Antiproliferative activity against human EOL-1 cells assessed as inhibition of cell viability incubated for 3 to 5 days by Celltiter-Glo luminescent assay; format: functional, cell-based
# NCI-H929 = experiment: Antiproliferative activity against human NCI-H929 cells assessed as inhibition of cell viability incubated for 3 to 5 days by Celltiter-Glo luminescent assay; format: functional, cell-based
# [18] = molecular target: Histone acetyltransferase p300 (Homo sapiens, UniProt Q09472)
# HCC1937 = experiment: Antiproliferative activity against human HCC1937 cells assessed as inhibition of cell viability incubated for 3 to 5 days by Celltiter-Glo luminescent assay; format: functional, cell-based
# Daudi = experiment: Antiproliferative activity against human Daudi cells assessed as inhibition of cell viability incubated for 3 to 5 days by Celltiter-Glo luminescent assay; format: functional, cell-based
smiles,measurement,setting,value
CNC(=O)Nc1ccc2c(c1)CC[C@@]21OC(=O)N(CC(=O)N(Cc2ccc(F)cc2)[C@@H](C)C(F)(F)F)C1=O [A-485],EC50,MDA-MB-468,0.38 µM
same,EC50,MeWo,2.43 µM
same,EC50,HCC4006,4.64 µM
same,inhibition,LuCaP-77 CR cell,inactive
same,EC50,CHL-1,0.37 µM
same,Tmax,[1],6 h
same,EC50,NCI-H1417,> 10 µM
same,IC50,[2],> 10 µM
same,IC50,[3],> 10 µM
same,EC50,NCI-H522,3.52 µM
same,EC50,NCI-H661,7.66 µM
same,EC50,OCI-Ly7,1.81 µM
same,IC50,[4],> 10 µM
same,EC50,BT-20,0.34 µM
same,IC50,[5],> 10 µM
same,EC50,COLO-679,2.26 µM
same,EC50,SET-2,2.01 µM
same,IC50,[6],> 10 µM
same,IC50,Aurora kinase A,> 10 µM
same,EC50,HCC2935,> 10 µM
same,EC50,NCI-H211,1.5 µM
same,IC50,[7],> 10 µM
same,EC50,NCI-H146,0.4 µM
same,IC50,[8],> 10 µM
same,IC50,[9],> 10 µM
same,Cmax,[10],75.5 µg/mL
same,EC50,OCI-Ly3,0.49 µM
same,EC50,NCI-H187,> 10 µM
same,AUC at 168 h,[11],2950 µg·h/mL
same,IC50,[12],> 10 µM
same,IC50,[13],> 10 µM
same,AUC at 168 h,[14],91.2 µg·h/mL
same,EC50,NCI-H69,> 10 µM
same,IC50,[15],> 10 µM
same,EC50,NCI-H1048,> 10 µM
same,IC50,[16],> 10 µM
same,EC50,OCI-Ly18,0.32 µM
same,IC50,[17],> 10 µM
same,EC50,EOL1,> 10 µM
same,EC50,NCI-H929,0.33 µM
same,T1/2,[18],8.85 min
same,EC50,HCC1937,> 10 µM
same,EC50,Daudi,0.43 µM
